Data set [1] relates to cerebellar granule neurons from P7 rats. The data set can be described thus: Neurite outgrowth (growth) assay, cerebellar neurons. The data set is classed as cell-based, rat. Particulars: data not shown.
Data set [2] concerns cerebellar granule neurons. The data set can be described thus: Ca2+ fluorescence imaging (Oregon-green 488BAPTA-1 and Fura Red). The format is cell-based. Particulars: p7 rat cerebellar granule neurons; inhibitor or antibody with MAG.
For data set [3], the target named is T1, p75 (Mus musculus, UniProt Q9Z0W1).
T1 construct: was incubated with lysates prepared from post-natal cerebellum that abundantly express p75; from tissue; host or cells: post-natal cerebellum lysate
T1 sequence (Q9Z0W1 32-427): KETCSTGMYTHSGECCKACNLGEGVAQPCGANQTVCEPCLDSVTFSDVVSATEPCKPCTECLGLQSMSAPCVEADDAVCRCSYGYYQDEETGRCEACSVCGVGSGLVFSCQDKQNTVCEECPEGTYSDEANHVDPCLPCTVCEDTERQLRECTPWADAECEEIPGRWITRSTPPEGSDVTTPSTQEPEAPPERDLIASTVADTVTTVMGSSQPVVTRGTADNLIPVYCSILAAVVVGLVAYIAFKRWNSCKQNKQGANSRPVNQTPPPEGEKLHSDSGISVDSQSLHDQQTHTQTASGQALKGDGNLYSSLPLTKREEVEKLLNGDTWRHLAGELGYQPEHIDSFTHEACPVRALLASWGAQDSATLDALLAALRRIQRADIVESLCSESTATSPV
The data set is described as follows: Co-precipitation of p75 with GST-Pep5. Conditions: lysates from post-natal cerebellum. The data set is classed as binding.

Data set [4] has as its system DRG neurons. The data set can be described thus: Neurite outgrowth assay, adult DRG neurons. The format is cell-based, mouse. Conditions: peptide 100 nM.
Data set [5] concerns cerebellar neurons. The data set can be described thus: Neurite outgrowth assay, post-natal cerebellar neurons. The format is cell-based, mouse.
Data set [6] concerns mice. The data set is described as follows: Spinal cord injury, similar experiments for mice (Example 2-7). The format is in vivo, mouse. As for the experimental part:
Similar experiments were carried out for mice as described above.

Data set [7] relates to male Wistar rats. The data set is described as follows: Spinal cord injury (dorsal half dissected, ninth thoracic vertebra), agent pumped to the injured site. The data set is classed as in vivo, rat. Conditions: continuous osmotic pump to the injured site; versus control peptide. As for the experimental part: 200 g male Wistar rats were used. After the ninth thoracic vertebrae laminectomy was performed, the dorsal half of the spinal cord was dissected. A continuous osmotic pump was used to continuously administer either TAT(PTD domain)-fused Pep5 (TAT-[…]) (SEQ ID NO. 2) or TAT(PTD domain)-fused control peptide (TAT-[…]) (SEQ ID NO. 15) to the injured site for 6 weeks ([…]). In this case, the tip of a tube connected to the pump was left in the medullary space. After spinal cord injury, the functional recovery was assessed using the BBB score. The animals were observed on day 7, 14, 21, 28, 35, and 42 after injury. These experiments were carried out using techniques described in Fournier A. E., Takizawa, B. T., Strittmatter, S. M., J. Neurosci. 2003, 23, 1416-1423.
200 g male Wistar rats were used. After the ninth thoracic vertebrae laminectomy was performed, the dorsal half of the spinal cord was dissected. A continuous osmotic pump was used to continuously administer either TAT-fused Pep5 or TAT (PTD domain)-fused control peptide to the injured site.

In data set [8] the test system is RhoA. The data set can be described thus: Affinity-precipitation of GTP-RhoA in cerebellar neurons. The format is cell-based, mouse. Particulars: TAT-Pep5 1 μM; Nogo peptide 4 μM, MAG-Fc 25 μg/ml; 30 min. The procedure: 293 cells were transfected with pcDNA3 vectors containing wild type RhoA whose NH2-terminus is tagged with HA (Yamashita, T. et al., Neuron. 24:585-593, 1999) and/or full-length human p75 by lipofection using Lipofectamine 2000 (Gibco BRL). Cerebellar neurons from P9 mice were isolated as described previously (Cai et al, Neuron, 22:89-101, 1999). Cells were lysed in 50 mM Tris (pH 7.5), 1% Triton X-100, 0.5% sodium deoxycholate, 0.1% SDS, 500 mM NaCl, 10 mM MgCl2, with leupeptin and aprotinin, each at 10 μg/ml. Cell lysates were clarified by centrifugation at 13,000×g at 4° C. for 10 min, and the supernatants were incubated with the 20 μg of GST-Rho binding domain of Rhotekin beads (Upstate Biotech.) at 4° C. for 45 min. The beads were washed 4 times with washing buffer (50 mM Tris (pH 7.5) containing 1% Triton X-100, 150 mM NaCl, 10 mM MgCl2, 10 μg/ml each of leupeptin and aprotinin). Bound Rho proteins were detected by Western blotting using a monoclonal antibody against RhoA (Santa Cruz Biotechnology).
Amino-terminally FLAG-tagged human p75 or the deletion mutants of p75 ICD were cloned into pcDNA3.1 expression plasmid, and were transfected with 293T cells. […] Bound Rho proteins were detected by Western blotting using a monoclonal antibody against RhoA (Santa Cruz Biotechnology).

Data set [9] has as its system Rho kinase fragment (aa 1-543). The data set is described as follows: Rho-kinase kinase assay in vitro (S6 kinase substrate peptide). The format is biochemical.
The test system of data set [10] is male Wistar rats. The data set is described as follows: Spinal cord injury, p21 and TAT-bound p21, BBB score. Particulars: osmotic pump to the injured site for 2 weeks; observed from day 2 for 6 weeks. The format is in vivo, rat. The procedure:
200 g male Wistar rats were used. After a ninth thoracic vertebrae laminectomy was performed, the dorsal half of the spinal cord was dissected. […] In this case, the tip of a tube connected to the pump was left in the medullary space.
After spinal cord injury, the functional recovery was assessed using the BBB score (Basso-Beattie-Bresnahan (BBB) Locomotor Rating; Basso, D. M., Beattie, M. S., Bresnahan, J. C., J. Neurotrauma 12 (1):1-21 (1995) ). Observation was carried out from day 2 after injury for 6 weeks.

Data set [11] addresses Rho-kinase (GST-CAT; aa 6-553) (Bos taurus, UniProt Q28021). The data set is described as follows: In vitro binding assay of p21 and Rho-kinase. Conditions: p21 1 nM.

Entries after “also recorded” stand apart in the source; their conditions may differ. Where no end group is shown, it is not given here.

Rho-kinase (GST-CAT; aa 6-553), sequence (Q28021 6-553): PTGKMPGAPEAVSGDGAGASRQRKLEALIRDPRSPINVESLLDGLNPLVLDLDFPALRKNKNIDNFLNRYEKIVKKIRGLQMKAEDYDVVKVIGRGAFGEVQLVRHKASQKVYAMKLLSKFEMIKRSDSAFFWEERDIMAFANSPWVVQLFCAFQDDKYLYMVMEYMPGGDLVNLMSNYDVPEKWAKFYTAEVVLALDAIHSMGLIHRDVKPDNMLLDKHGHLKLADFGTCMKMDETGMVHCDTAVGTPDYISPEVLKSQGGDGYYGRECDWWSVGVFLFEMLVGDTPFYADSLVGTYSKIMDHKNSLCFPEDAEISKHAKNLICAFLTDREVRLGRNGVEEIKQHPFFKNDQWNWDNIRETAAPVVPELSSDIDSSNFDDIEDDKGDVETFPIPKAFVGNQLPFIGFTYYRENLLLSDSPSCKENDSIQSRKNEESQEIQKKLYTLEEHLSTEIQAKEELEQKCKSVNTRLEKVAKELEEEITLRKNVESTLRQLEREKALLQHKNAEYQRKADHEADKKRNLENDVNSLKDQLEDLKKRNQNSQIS

`Cn1c2ccccc2c2c3c(c4c5ccccc5n(CCC#N)c4c21)CNC3=O` [G06976]: the “neurite outgrowth by MAG-Fc or Nogo peptide when another PKC inhibitor was used” value in data set [1] is on record as “Same results”.

Regarding `COc1ccc2c(c1)CC[C@@H]1[C@@H]2CC[C@]2(C)[C@@H](NCCCCCCN3C(=O)C=CC3=O)CC[C@@H]12` [U73122], the “effect on Ca2+ elevation induced by MAG” value in data set [2] was “blocked”.

For “GST-Pep5: Glutathione S-transferase-fusion protein containing Pep5 (CFFRGGFFNHNPRYC; cysteine pairing not given here; also: GST fusion protein)”, the “co-precipitation of p75 with GST-Pep5” value in data set [3] is “presence of a protein corresponding to p75”.

For “TAT-CFFRGGFFNHNPRYC ({TAT}-CFFRGGFFNHNPRYC; cysteine pairing not given here) [TAT-Pep5, Pep5 fused with the amino-terminal 11 amino acid protein transduction domain of HIV TAT]”, the “responsiveness of DRG neurons to MAG (25 μg/ml) and the Nogo peptide (4 μM)” value in [4] was “abolished their responsiveness”. In addition, the “inhibitory effect of MAG (25 μg/ml) and the Nogo peptide (4 μM) on post-natal cerebellar neurons” value in [5] is “efficiently silenced the inhibitory effect”. Further, the “nerve regeneration after spinal cord injury” value in [6] is recorded as “nerve regeneration was similarly observed”; in [7], “nerve regeneration was significantly observed”. Moreover, the “activation of RhoA induced by MAG-Fc or the Nogo peptide” value in [8] was “inhibited the activation of RhoA; also recorded: completely abolishes these effects”.

For the molecule “p21: recombinant full-length p21 (1-164 in SEQ ID NO. 23), cyclin-dependent protein kinase inhibitor”, the “Rho-kinase activity toward S6 kinase substrate peptide” value in data set [9] is “inhibited the Rho-kinase activity toward S6 kinase substrate peptide in a dose-dependent manner”. The “functional recovery after spinal cord injury (BBB score)” value in [10] is reported as “not sufficiently observed”. Moreover, in [11], the “in vitro interaction with the catalytic region of Rho-kinase” value is reported as “bound to each other in vitro”.

Source of the values: patent US20040191240A1, “Composition and method for nerve regeneration” (priority 2003, published 2004).
